Experimental data from ChEMBL document CHEMBL3808343, “Glutaminase GLS1 Inhibitors as Potential Cancer Treatment” (ACS Med Chem Lett, 2016).
pIC50: −log10 of the molar value.

What was measured:
[1] = tested on: NCI-H1703; test: Antiproliferative activity against human NCI-H1703 cells assessed as reduction in cell growth after 5 days by Sytox Green dye based assay; type: functional; details: NCI-H1703, 120 h
[2] = target: T1, Glutaminase kidney isoform, mitochondrial (Homo sapiens, UniProt O94925); test: Inhibition of GLS1 in human PC3 cells assessed as cellular glutamate depletion levels after 6 hrs by Glutamate Oxidase/ AmplexRed coupled assay; type: cell-based, PC-3
T1 sequence (O94925 whole entry): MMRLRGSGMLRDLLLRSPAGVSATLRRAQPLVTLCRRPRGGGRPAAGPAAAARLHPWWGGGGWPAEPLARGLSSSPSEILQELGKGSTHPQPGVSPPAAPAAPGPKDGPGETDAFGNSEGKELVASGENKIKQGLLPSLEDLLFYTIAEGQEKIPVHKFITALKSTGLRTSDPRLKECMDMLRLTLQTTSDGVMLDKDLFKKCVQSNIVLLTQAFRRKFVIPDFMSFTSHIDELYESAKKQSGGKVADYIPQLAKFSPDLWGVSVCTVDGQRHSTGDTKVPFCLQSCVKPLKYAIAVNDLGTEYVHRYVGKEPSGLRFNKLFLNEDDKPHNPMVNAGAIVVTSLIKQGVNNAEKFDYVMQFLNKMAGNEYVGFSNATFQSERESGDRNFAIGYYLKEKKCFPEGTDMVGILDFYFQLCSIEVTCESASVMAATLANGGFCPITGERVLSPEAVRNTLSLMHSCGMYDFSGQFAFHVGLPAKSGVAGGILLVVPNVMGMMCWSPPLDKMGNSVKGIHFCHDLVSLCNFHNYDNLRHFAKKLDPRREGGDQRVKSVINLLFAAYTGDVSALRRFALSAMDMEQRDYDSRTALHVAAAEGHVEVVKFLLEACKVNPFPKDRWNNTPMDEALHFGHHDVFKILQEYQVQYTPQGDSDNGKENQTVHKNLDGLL

[3] = target: T1, Glutaminase kidney isoform, mitochondrial
Description: Inhibition of 6His-tagged GLS1 (63-669 residues) (unknown origin) expressed in Escherichia coli using glutamine as substrate after 15 mins by Glutamate Oxidase/ AmplexRed coupled assay

pIC50 [2] | pIC50 [3] | Structure (SMILES) | pIC50 [1]
– | – | COc1ccc([C@H](OC)C(=O)Nc2nnc(N[C@@H]3CCN(c4cccnn4)C3)s2)cc1 | 7.97
8.30 | 7.15 | COc1cc([C@@H](OC)C(=O)Nc2nnc(N[C@@H]3CCN(c4cncnn4)C3)s2)ccc1F | 6.97
– | – | CO[C@H](C(=O)Nc1nnc(N[C@@H]2CCN(c3cncnn3)C2)s1)c1ccccc1 | 8.49
